Patent publication US8821888B2, “Xylogone ganodermophthora strain with antifungal activity, and composition including same for preventing plant diseases” (The Director of Chungcheongbuk-Do Agricultural Research and …, priority 2013, dated 2014)

Tested on: Sphaerotheca fusca
Experiment: Control effect of sprayed extract on leaves of cucurbitaceous crops infected with Sphaerotheca fusca
Format: in vivo
Conditions: 4,000 fold dilution, 7 days after spray
Experimental: The control effects of the extract of the cultured H55 strain prepared in Example 1 were measured. […] The extract was sprayed once at the initial stage of the development of Sphaerotheca fusca, and at 7 days after the spray of the extract, the control effect of the extract for each crop was measured.

`CCCOC/C(=N\c1ccc(Cl)cc1C(F)(F)F)n1ccnc1` [Triflumizole] was tested, and the Control value (Cucumbers) was 83.3, the Diseased leaf area (Cucumbers) was 10% and the Control value (Melons) was 42.9. The Diseased leaf area (Melons) was 40%, the Control value (Oriental melons) was 80.0 and the Diseased leaf area (Oriental melons) was 10%. The Control value (Pumpkins) was 62.5 and the Diseased leaf area (Pumpkins) was 30%.
